Biological target: T1, Bcl-2 protein (Recombinant Human Bcl-2 Protein) (Homo sapiens, UniProt P10415)
T1 construct: purchased Novus NBP2-34889
Assay: Binding evaluation of mixture library compounds to Bcl-2 using AS-MS (affinity selection mass spectrometry)
Conditions: for ASMS ratio (%) n = 1 / ASMS ratio (%) n = 2: ASMS Ratio(%)=(A−C)/B×100; for ASMS ratio (%) n = 1: replicate n = 1; for ASMS ratio (%) n = 2: replicate n = 2
Summary of the method: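 ASMS Ratio (%) was calculated as (A−C)/B×100, where A is the protein sample after SEC, B the protein-free sample without SEC and C the protein-free sample after SEC. Each compound was at […] in a 1200-member pool with 20 μM Bcl-2, incubated 1 h at 23° C.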

[1] = AS-MS on the mixture of 1200 library compounds
[2] = AS-MS, mixture of 1200 compounds, Bcl-2

T1 sequence (P10415 whole entry): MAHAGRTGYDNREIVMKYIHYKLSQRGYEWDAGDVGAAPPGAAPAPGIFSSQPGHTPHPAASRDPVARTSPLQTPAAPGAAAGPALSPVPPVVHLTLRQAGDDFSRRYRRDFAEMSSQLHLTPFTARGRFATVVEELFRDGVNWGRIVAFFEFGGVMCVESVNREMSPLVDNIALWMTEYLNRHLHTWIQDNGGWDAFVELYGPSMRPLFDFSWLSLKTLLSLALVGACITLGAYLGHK

Row | ASMS ratio (%) (n = 1) | ASMS ratio (%) n = 1 [2] [%] | ASMS ratio (%) n = 2 [2] [%] | Molecule | other results
1 | 0.0 |  |  | CCOc1cccc(-c2ccc(CN3CCN(c4ccc(C(=O)NS(=O)(=O)C(C)(C)C)cc4)CC3)cc2F)c1 [B2L051-01, N-tert-Butylsulfonyl-4-[4-[[4-(3-ethoxyphenyl)-3-fluorophenyl]methyl]piperazin-1-yl]benzamide] | ASMS ratio (%) (n = 2): 0.0%
2 | 0.0 |  |  | CCOc1cncc(C#Cc2ccccc2CN2CCN(c3ccc(C(=O)NS(=O)(=O)C(C)(C)C)nn3)CC2)c1 [B2L096-01, N-tert-Butylsulfonyl-6-[4-[[2-[2-(5-ethoxypyridin-3-yl)ethynyl]phenyl]methyl]piperazin-1-yl]pyridazine-3-carboxamide] | ASMS ratio (%) (n = 2): 0.0%
3 | 0.0 |  |  | CCOc1cccc(-c2ccc(CN3CCN(c4ccc(C(=O)NS(=O)(=O)C(C)(C)C)nn4)CC3)cc2F)c1 [B2L077-01, N-tert-Butylsulfonyl-6-[4-[[4-(3-ethoxyphenyl)-3-fluorophenyl]methyl]piperazin-1-yl]pyridazine-3-carboxamide] | ASMS ratio (%) (n = 2): 0.0%
4 | 0.0 |  |  | CCOc1cccc(C#Cc2ccccc2C(=O)N2CCN(c3ccc(C(=O)NS(=O)(=O)C(C)(C)C)cc3)CC2)c1 [B2L029-01, N-tert-Butylsulfonyl-4-[4-[2-[2-(3-ethoxyphenyl)ethynyl]benzoyl]piperazin-1-yl]benzamide] | 
5 | 0.0 |  |  | CCOc1cccc(-c2ccc(C(C)N3CCN(c4ccc(C(=O)NS(=O)(=O)CCC(F)(F)F)cc4)CC3)cc2)c1 (centres unmarked) [B2N097-01, 4-[4-[1-[4-(3-Ethoxyphenyl)phenyl]ethyl]piperazin-1-yl]-N-(3,3,3-trifluoropropylsulfonyl)benzamide] | ASMS ratio (%) (n = 2): 0.0%
6 | 6.3 |  |  | CCOc1cccc(-c2cc(C(=O)N3CCN(c4ccc(C(=O)NS(=O)(=O)c5ccc(NCCSc6ccccc6)c(C(F)(F)F)c5)cc4)CC3)cc(C(C)(C)C)c2)c1 [B2R037-01, 4-[4-[3-tert-Butyl-5-(3-ethoxyphenyl)benzoyl]piperazin-1-yl]-N-[4-(2-phenylsulfanylethylamino)-3-(trifluoromethyl)phenyl]sulfonylbenzamide] | ASMS ratio (%) (n = 2): −7.0%

The next lines start with the molecule.

Row | Molecule | ASMS ratio (%) (n = 1) | ASMS ratio (%) n = 1 [2] [%] | ASMS ratio (%) n = 2 [2] [%] | other results
7 | CCOc1cccc(-c2cc(CN3CCN(c4ccc(C(=O)N(CC)CC)cc4)CC3)cc(OCC)c2)c1 [B4J055-01, 4-[4-[[3-Ethoxy-5-(3-ethoxyphenyl)phenyl]methyl]piperazin-1-yl]-N,N-diethylbenzamide] |  |  |  | ASMS ratio (%) n = 1 [1]: −0.7%; ASMS ratio (%) n = 2 [1]: 1.4%
8 | 6-[4-[[4-(3-Ethoxyphenyl)-3-methylphenyl]methyl]piperazin-1-yl]-N-propylpyridazine-3-carboxamide [B1M059-01] |  | −5.5 | −7.2 | 
9 | CCOc1cncc(-c2ccc(C(C)N3CCN(c4ccc(C(=O)Nc5ccc(OC)cc5)cc4)CC3)c(F)c2)c1 (centres unmarked) [B1O100-01, 4-[4-[1-[4-(5-Ethoxypyridin-3-yl)-2-fluorophenyl]ethyl]piperazin-1-yl]-N-(4-methoxyphenyl)benzamide] |  |  |  | ASMS ratio (%) n = 1 [1]: −19.7%; ASMS ratio (%) n = 2 [1]: 11.1%
10 | 6-[4-[[3-Ethoxy-5-(5-ethoxypyridin-3-yl)phenyl]methyl]piperazin-1-yl]-N-propylpyridazine-3-carboxamide [B1M012-01] |  | −3.5 | −2.3 | 
11 | CCOc1cccc(-c2ccc(CN3CCN(c4ccc(C(=O)N(CC)CC)nn4)CC3)c(OC)c2)c1 [B4J079-01, 6-[4-[[4-(3-Ethoxyphenyl)-2-methoxyphenyl]methyl]piperazin-1-yl]-N,N-diethylpyridazine-3-carboxamide] |  |  |  | ASMS ratio (%) n = 1 (AS-MS, mixture library, Bcl-2): 0.0%; ASMS ratio (%) n = 2 (AS-MS, mixture library, Bcl-2): 0.0%
12 | CCOc1cncc(-c2ccc(CN3CCN(c4ccc(C(=O)NS(=O)(=O)CC56CC7CC(CC(C7)C5)C6)cc4)CC3)c(CC)c2)c1 [B2A050-01, N-(1-Adamantylmethylsulfonyl)-4-[4-[[4-(5-ethoxypyridin-3-yl)-2-ethylphenyl]methyl]piperazin-1-yl]benzamide] |  |  |  | ASMS ratio (%) n = 1 (AS-MS, mixture library, Bcl-2): −1.1%; ASMS ratio (%) n = 2 (AS-MS, mixture library, Bcl-2): 1.6%
13 | CCOc1cncc(-c2cc(C(=O)N3CCN(c4ccc(C(=O)N(CC)CC)cc4)CC3)cc(C(C)(C)C)c2)c1 [B4J038-01, 4-[4-[3-tert-Butyl-5-(5-ethoxypyridin-3-yl)benzoyl]piperazin-1-yl]-N,N-diethylbenzamide] |  |  |  | ASMS ratio (%) n = 1 [1]: 0.8%; ASMS ratio (%) n = 2 [1]: 0.0%
14 | CCOc1cncc(C#Cc2cncc(C(=O)N3CCN(c4ccc(C(=O)NCC56CC7CC(CC(C7)C5)C6)nn4)CC3)c2)c1 [B1A010-01, N-(1-Adamantylmethyl)-6-[4-[5-[2-(5-ethoxypyridin-3-yl)ethynyl]pyridine-3-carbonyl]piperazin-1-yl]pyridazine-3-carboxamide] |  |  | 0.0 | 
15 | CCOc1cccc(C#Cc2ccccc2C(=O)N2CCN(c3ccc(C(=O)NS(=O)(=O)CC45CC6CC(CC(C6)C4)C5)nn3)CC2)c1 [B2A007-01, N-(1-Adamantylmethylsulfonyl)-6-[4-[2-[2-(3-ethoxyphenyl)ethynyl]benzoyl]piperazin-1-yl]pyridazine-3-carboxamide] |  |  |  | ASMS ratio (%) n = 2 (AS-MS, mixture library, Bcl-2): 0.0%
16 | CCOc1cncc(-c2ccccc2CCC(=O)N2CCN(c3ccc(C(=O)NS(=O)(=O)C(C)(C)C)nn3)CC2)c1 [B2L012-01, N-tert-Butylsulfonyl-6-[4-[3-[2-(5-ethoxypyridin-3-yl)phenyl]propanoyl]piperazin-1-yl]pyridazine-3-carboxamide] | 4.3 |  |  | ASMS ratio (%) (n = 2): 7.3%
17 | CCOc1cncc(-c2ccccc2CN2CCN(c3ccc(C(=O)Nc4ccc(OC)cc4)nn3)CC2)c1 [B1O072-01, 6-[4-[[2-(5-Ethoxypyridin-3-yl)phenyl]methyl]piperazin-1-yl]-N-(4-methoxyphenyl)pyridazine-3-carboxamide] |  |  |  | ASMS ratio (%) n = 1 [1]: 4.1%; ASMS ratio (%) n = 2 [1]: 0.4%
18 | 6-[4-[[4-(5-Ethoxypyridin-3-yl)-3-methylphenyl]methyl]piperazin-1-yl]-N-propylpyridazine-3-carboxamide [B1M065-01] |  | 0.2 | −6.4 | 
19 | CCOc1cncc(-c2csc(CN3CCN(c4ccc(C(=O)NCC(F)(F)F)nn4)CC3)c2)c1 [B1K094-01, 6-[4-[[4-(5-Ethoxypyridin-3-yl)thiophen-2-yl]methyl]piperazin-1-yl]-N-(2,2,2-trifluoroethyl)pyridazine-3-carboxamide] |  | 1.4 | −0.1 | 
20 | CCOc1cccc(-c2cnn(-c3cc(C(=O)N4CCN(c5ccc(C(=O)NCC67CC8CC(CC(C8)C6)C7)nn5)CC4)cc(C(F)(F)F)c3)c2)c1 [B1A021-01, N-(1-Adamantylmethyl)-6-[4-[3-[4-(3-ethoxyphenyl)pyrazol-1-yl]-5-(trifluoromethyl)benzoyl]piperazin-1-yl]pyridazine-3-carboxamide] |  | −1.3 | −3.7 | 
21 | CCOc1cccc(-c2ccc(C(=O)N3CCN(c4ccc(C(=O)NS(=O)(=O)c5ccc(NCCSc6ccccc6)c([N+](=O)[O-])c5)cc4)CC3)c3ccccc23)c1 [B2Q035-01, 4-[4-[4-(3-Ethoxyphenyl)naphthalene-1-carbonyl]piperazin-1-yl]-N-[3-nitro-4-(2-phenylsulfanylethylamino)phenyl]sulfonylbenzamide] |  |  |  | ASMS ratio (%) n = 1 (AS-MS, mixture library, Bcl-2): 9.9%; ASMS ratio (%) n = 2 (AS-MS, mixture library, Bcl-2): −13.7%
22 | 4-[4-[[3-(5-Ethoxypyridin-3-yl)-5-(trifluoromethyl)phenyl]methyl]piperazin-1-yl]-N-propylbenzamide [B1M028-01] |  | 0.0 | 0.0 | 
23 | 4-[4-[4-(3-Ethoxyphenyl)thiophene-2-carbonyl]piperazin-1-yl]-N-propylbenzamide [B1M083-01] |  |  |  | ASMS ratio (%) n = 1 [1]: 0.0%; ASMS ratio (%) n = 2 [1]: −0.3%
24 | CCOc1cncc(-c2ccc(C(=O)N3CCN(c4ccc(C(=O)NS(=O)(=O)C(C)(C)C)nn4)CC3)cc2F)c1 [B2L006-01, N-tert-Butylsulfonyl-6-[4-[4-(5-ethoxypyridin-3-yl)-3-fluorobenzoyl]piperazin-1-yl]pyridazine-3-carboxamide] | 0.0 |  |  | ASMS ratio (%) (n = 2): 0.0%
25 | CCOc1cccc(-c2ccc(C(=O)N3CCN(c4ccc(C(=O)NS(=O)(=O)C(C)(C)C)cc4)CC3)cc2F)c1 [B2L027-01, N-tert-Butylsulfonyl-4-[4-[4-(3-ethoxyphenyl)-3-fluorobenzoyl]piperazin-1-yl]benzamide] | 0.0 |  |  | ASMS ratio (%) (n = 2): 0.0%
26 | CCOc1cncc(C#Cc2ccccc2CN2CCN(c3ccc(C(=O)NCC(F)(F)F)cc3)CC2)c1 [B1K070-01, 4-[4-[[2-[2-(5-Ethoxypyridin-3-yl)ethynyl]phenyl]methyl]piperazin-1-yl]-N-(2,2,2-trifluoroethyl)benzamide] |  | 0.0 | 0.0 | 
27 | CCOc1cccc(-c2ccc(CN3CCN(c4ccc(C(=O)NCC(F)(F)F)nn4)CC3)c(CC)c2)c1 [B1K075-01, 6-[4-[[4-(3-Ethoxyphenyl)-2-ethylphenyl]methyl]piperazin-1-yl]-N-(2,2,2-trifluoroethyl)pyridazine-3-carboxamide] |  | 1.4 | −3.8 | 
28 | CCOc1cccc(-c2ccc(C(C)N3CCN(c4ccc(C(=O)NCC(F)(F)F)cc4)CC3)c(F)c2)c1 (centres unmarked) [B1K099-01, 4-[4-[1-[4-(3-Ethoxyphenyl)-2-fluorophenyl]ethyl]piperazin-1-yl]-N-(2,2,2-trifluoroethyl)benzamide] |  | 0.0 | 0.0 | 
